# Source: patent publication US11180499B2, “Phosphodiesterase inhibitors” (BOARD OF REGENTS OF THE UNIVERSITY OF NEBRASKA, priority 2018, dated 2021)
# Experiments:
# PDE4B1 = target: T1, PDE4B1 (Homo sapiens, UniProt Q07343); assay: Cell-based PDE4B assay (HEK293, PDE4B1 vector, CRE luciferase reporter, forskolin); settings: versus apremilast
# T1 construct: expressed in transfected cells; host or cells: HEK293
# Protocol: Cells were incubated at 37° C. and 5% CO2 overnight. […] Cell based assays were performed in triplicate at each concentration.
# [1] = tested on: cocaine self-administered mice; assay: Cocaine self-administration (seeking and taking behavior); format: in vivo, mouse; settings: i.p., 30 min before 2 h FR1 session
# Protocol: (a) Surgery procedure: WT mice (10-12 weeks, both genders) were implanted with permanently indwelling catheters (Plastics one) into the right jugular vein under a combination of ketamine hydrochloride ([…], i. p.) and xylazine ([…], i.p.) anesthesia. The catheter is tied to the vein with surgical silk and is passed subcutaneously to the back of the mouse where the catheter is affixed to a small plastic pedestal (26 G, Plastics One Company). After the surgery, the catheters were flushed daily with heparin (30 IU/mi) to avoid clotting. Mice were allowed at least 7 days of recovery in their home before the start of the experiments.
# (b) The establishment of cocaine self-administered mice: Mice were individually put into sound-mitigation cubicles (Coulbourne Instrument) for the training of self-administered cocaine (1.0 mg/kg/infusion). […] A timeout period of 15 seconds followed each drug injection. All responses were recorded automatically using a computer interface and Graphic State Notation 4 software (Coulbourne Instrument). Mice were trained to self-administer cocaine during one daily session under a fixed ratio 1 (FR1) schedule. […]
# (c) The effects of Compound 8 on cocaine-mediated seeking and taking behavior. […] The numbers of active nose-poke and cocaine infusions were recorded. […]
# WT mice = assay: Locomotor analysis (cocaine-induced hyperlocomotion, open field); format: in vivo, mouse; settings: for Locomotor activity of compound alone: Compound 8 + saline
# Protocol: Locomotor analysis: WT mice (both gender, n=6-8) were divided into four groups receiving various treatments: (1) vehicle+saline; (2) vehicle+cocaine; (3) Compound 8+saline; and (4) Compound 8+cocaine. Cocaine was administered at 20 mg/kg (i.p.) and Compound 8 was used at two different doses 5 or 10 mg/kg (i.p.). Compound 8 was firstly injected into the mice and 30 min later followed with cocaine administration. To investigate the effects of Compound 8 on acute locomotor response, immediately following cocaine injection, mice were put into the open field apparatus (Truescan, Coulbourn instrument) to detect locomotor activity for 45 min. The TruScan photobeam activity system consists of a clear arena with infrared sensors located on a ring 3 cm above floor level. There are 16 beams spaced 1 inch apart on the sensor ring that are used to detect movements by mice. […] To investigate the effects of Compound 8 on locomotor sensitization, mice were repeatedly injected with Compound 8 and cocaine for 7 consecutive days and the locomotor responses were recorded every other day.
# PDE4B = target: T2, PDE4B (Homo sapiens, UniProt Q07343); assay: In vitro PDE4 inhibition study, PDE4B (BPS Bioscience); format: binding
# T2 construct: purchased BPS Bioscience, San Diego
# T2 sequence (Q07343 whole entry): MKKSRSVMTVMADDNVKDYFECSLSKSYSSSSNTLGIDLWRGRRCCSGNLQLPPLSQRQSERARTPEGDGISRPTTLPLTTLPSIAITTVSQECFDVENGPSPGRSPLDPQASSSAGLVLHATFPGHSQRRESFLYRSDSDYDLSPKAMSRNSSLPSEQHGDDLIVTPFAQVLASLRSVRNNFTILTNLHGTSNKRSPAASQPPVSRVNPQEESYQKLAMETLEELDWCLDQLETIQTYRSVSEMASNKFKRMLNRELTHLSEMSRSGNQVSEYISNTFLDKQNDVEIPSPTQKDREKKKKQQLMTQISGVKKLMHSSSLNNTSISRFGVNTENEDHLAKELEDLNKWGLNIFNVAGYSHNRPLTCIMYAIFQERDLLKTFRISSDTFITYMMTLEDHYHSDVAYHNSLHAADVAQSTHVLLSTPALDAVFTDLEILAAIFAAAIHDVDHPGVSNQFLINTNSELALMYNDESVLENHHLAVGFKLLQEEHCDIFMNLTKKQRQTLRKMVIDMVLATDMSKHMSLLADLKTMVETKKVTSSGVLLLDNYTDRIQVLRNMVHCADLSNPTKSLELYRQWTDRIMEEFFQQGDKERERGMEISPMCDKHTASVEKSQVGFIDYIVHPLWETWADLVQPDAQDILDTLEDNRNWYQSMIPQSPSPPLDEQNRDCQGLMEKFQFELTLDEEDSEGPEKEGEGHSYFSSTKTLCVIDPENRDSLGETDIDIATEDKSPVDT
# Protocol: The IC50 values of Compound 8 on PDE4 isoforms were determined by BPS Bioscience, San Diego. In brief, coat proteins (PDE4 isoforms) were added into the plate in a volume of 50 μl (2-5 ng/μl) at 4° C. overnight. The next day, Compound 8 was added to the coated plate with varying concentrations followed by addition of the corresponding biotinylated binding partner. The reaction was incubated for 2 hours at room temperature. Binding assays were performed in duplicate at each concentration and the plates were read by using Synergy 2 BioTek plate reader. The luminescence data were analyzed using the Graphpad Prism. […] Data for a reference compounds or antibodies are included as a control for inhibition. “ND” indicates the compound was not tested.
# T1 sequence (Q07343 whole entry): as above
smiles,measurement,setting,value
"O=C(c1cc2cccnc2n1-c1ccc(Cl)c(Cl)c1)N1CC(F)(F)C1 [Compound 8, (1-(3,4-dichlorophenyl)-1H-pyrrolo[2,3-b]pyridin-2-yl)(3,3-difluoroazetidin-1-yl)methanone]",EC50 for PDE4B inhibition relative to apremilast,PDE4B1,ten-fold lower EC50
same,"Cocaine-mediated seeking and taking behavior (active nose-pokes, cocaine infusions)",[1],significantly decreased
same,Cocaine-induced hyperlocomotion,WT mice; 5 or 10 mg/kg i.p. 30 min before cocaine 20 mg/kg i.p.,inhibited the cocaine induce hyperlocomotion
same,Locomotor activity of compound alone,WT mice,without any increase alone
same,Locomotor activity of compound alone,WT mice; listed as compound 8,without any increase by itself
same,IC50,PDE4B,140 nM
